In US20260138958A1, “SUBSTITUTED N-PHENYLURACILS AND SALTS THEREOF, AND USE THEREOF AS HERBICIDAL ACTIVE SUBSTANCES” (Bayer Aktiengesellschaft, priority 2022, published 2026):

Legend:
Format in all cases: in vivo
[1] = test system: Abutilon theophrasti (ABUTH); assay: Post-emergence herbicidal action, greenhouse pot test; conditions: for pest or weed control at 5 g/ha / pest or weed control at 20 g/ha: Abutilon theophrasti, 504 h; for pest or weed control at 5 g/ha: read-out: Post-emergence effect at 5 g/ha against ABUTH in %; for pest or weed control at 20 g/ha: read-out: Post-emergence effect at 20 g/ha against ABUTH in %
How it was run: (§1)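 Visual rating, about 3 weeks post-spray, relative to untreated plants: 100% activity means plants died, 0% means no difference from control. Plants in sandy loam were treated at one-leaf stage (2–3 weeks after sowing) with compound as WP or EC in water, 0.5% additive, 600 l/ha.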

[2] = test system: Alopecurus myosuroides (ALOMY); assay: as above; conditions: for pest or weed control at 20 g/ha: Alopecurus myosuroides, 504 h, read-out: Post-emergence effect at 20 g/ha against ALOMY in %; for ALOMY (efficacy in %): Table B1 comparison, application rate 20 g/ha
How it was run: as §1

[3] = test system: Amaranthus retroflexus (AMARE); assay: as above; conditions: Amaranthus retroflexus, 504 h; for pest or weed control at 1.25 g/ha: read-out: Post-emergence effect at 1.25 g/ha against AMARE in %; for pest or weed control at 5 g/ha: read-out: Post-emergence effect at 5 g/ha against AMARE in %; for pest or weed control at 20 g/ha: read-out: Post-emergence effect at 20 g/ha against AMARE in %
How it was run: as §1

[4] = test system: Digitaria sanguinalis (DIGSA); assay: as above
How it was run: as §1

[5] = test system: Echinochloa crus-galli (ECHCG); assay: as above; conditions: for pest or weed control at 20 g/ha: Echinochloa crus-galli, 504 h, read-out: Post-emergence effect at 20 g/ha against ECHCG in %; for ECHCG (efficacy in %): Table B2 comparison, application rate 1.25 g/ha
How it was run: as §1

[6] = test system: Pharbitis purpurea (PHBPU); assay: as above; conditions: for pest or weed control at 5 g/ha / pest or weed control at 20 g/ha: Ipomoea purpurea, 504 h; for pest or weed control at 5 g/ha: read-out: Post-emergence effect at 5 g/ha against PHBPU in %; for pest or weed control at 20 g/ha: read-out: Post-emergence effect at 20 g/ha against PHBPU in %
How it was run: as §1

[7] = test system: Polygonum convolvulus (POLCO); assay: as above; conditions: Fallopia convolvulus, 504 h; for pest or weed control at 5 g/ha: read-out: Post-emergence effect at 5 g/ha against POLCO in %; for pest or weed control at 20 g/ha: read-out: Post-emergence effect at 20 g/ha against POLCO in %
How it was run: as §1

Setaria viridis (SETVI) = assay: as above; conditions: for pest or weed control at 5 g/ha / pest or weed control at 20 g/ha: Setaria viridis, 504 h; for pest or weed control at 5 g/ha: read-out: Post-emergence effect at 5 g/ha against SETVI in %; for pest or weed control at 20 g/ha: read-out: Post-emergence effect at 20 g/ha against SETVI in %
How it was run: as §1

[8] = test system: Tripleurospermum inodorum (MATIN); assay: as above; conditions: Tripleurospermum inodorum, 504 h, 20 g/ha, read-out: Post-emergence effect at 20 g/ha against MATIN in %
How it was run: as §1

Veronica persica (VERPE) = assay: as above; conditions: for pest or weed control at 5 g/ha / pest or weed control at 20 g/ha: Veronica persica, 504 h; for pest or weed control at 5 g/ha: read-out: Post-emergence effect at 5 g/ha against VERPE in %; for pest or weed control at 20 g/ha: read-out: Post-emergence effect at 20 g/ha against VERPE in %
How it was run: as §1

Viola tricolor (VIOTR) = assay: as above; conditions: for pest or weed control at 20 g/ha: Viola tricolor, 504 h, read-out: Post-emergence effect at 20 g/ha against VIOTR in %
How it was run: as §1

Oryza sativa (ORYSA) = assay: Post-emergence crop plant compatibility, greenhouse pot test; conditions: Oryza sativa, in vivo
How it was run: (§2)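 Visual % damage scores were taken roughly 3 weeks after treatment, relative to untreated plants, where 100% means plants died and 0% means no difference. Plants received aqueous sprays (WP or EC, 0.5% additive, 600 l/ha) on green parts at the one-leaf stage, 2–3 weeks after sowing.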

[9] = test system: Triticum aestivum (TRZAS); assay: as above; conditions: Triticum aestivum, in vivo
How it was run: as §2

Zea mays (ZEAMX) = assay: as above; conditions: Zea mays, in vivo
How it was run: as §2

Avena fatura (AVEFA) = assay: Comparative post-emergence herbicidal action, greenhouse pot test; conditions: Table B3 comparison, application rate 20 g/ha
Description: (§3) Seeds of monocotyledonous and dicotyledonous weeds and crop plants were placed in sandy loam in plastic or wood-fibre pots, covered with soil and cultivated in a greenhouse under controlled growth conditions. 2 to 3 weeks after sowing, the test plants were treated at the one-leaf stage. The compounds of the invention, formulated in the form of wettable powders (WP) or as emulsion concentrates (EC), were then sprayed onto the green parts of the plants as aqueous suspension or emulsion with addition of 0.5% additive at a water application rate of 600 l/ha (converted). After the test plants had been kept in the greenhouse under optimum growth conditions for about 3 weeks, the activity of the preparations was rated visually in comparison to untreated controls. For example, 100% activity=the plants have died, 0% activity=like control plants.
Tables B1-B5 below show the effects of inventive compounds (I.7-12, I.7-14, I.7-16) that have been obtained by the test method specified above on various harmful plants at an application rate corresponding to 20 g/ha or lower by comparison with structurally similar compounds known from the literature (“a-27”, “a-29”, disclosed in WO2002/098227).

harmful plants = assay: Post-emergence herbicidal action, summary statements over several weeds; conditions: 20 g or less per hectare, ALOMY, ECHCG, AVEFA, VERPE
Description: as §3

crop plants = assay: Post-emergence crop plant compatibility, summary statements over several crops; conditions: 5 g or less per hectare, ORYSA, ZEAMX, TRZAS
Description: as §3
The observed effects on selected crop plants are reported here in comparison to the untreated controls (values in %).

Glycine max (GLXMA) = assay: Post-emergence crop plant compatibility, greenhouse pot test; conditions: Glycine max, in vivo
How it was run: as §2

| SMILES | pest or weed control at 5 g/ha [1] [%] | pest or weed control at 20 g/ha [1] [%] | pest or weed control at 20 g/ha [2] [%] | ALOMY (efficacy in %) [2] [%] | pest or weed control at 1.25 g/ha [3] [%] | pest or weed control at 5 g/ha [3] [%] | pest or weed control at 20 g/ha [3] [%] | pest or weed control at 20 g/ha [5] [%] | ECHCG (efficacy in %) [5] [%] | pest or weed control at 5 g/ha [6] [%] | pest or weed control at 20 g/ha [6] [%] | pest or weed control at 5 g/ha [7] [%] | pest or weed control at 20 g/ha [7] [%] | pest or weed control at 5 g/ha (Setaria viridis (SETVI)) [%] | pest or weed control at 20 g/ha (Setaria viridis (SETVI)) [%] | pest or weed control at 20 g/ha [8] [%] | pest or weed control at 5 g/ha (Veronica persica (VERPE)) [%] | pest or weed control at 20 g/ha (Veronica persica (VERPE)) [%] | pest or weed control at 20 g/ha (Viola tricolor (VIOTR)) [%] | Post-emergence effect at 1.25 g/ha against ORYSA in % (Oryza sativa (ORYSA)) [%] | also measured |
| --- | --- | --- | --- | --- | --- | --- | --- | --- | --- | --- | --- | --- | --- | --- | --- | --- | --- | --- | --- | --- | --- |
| Cn1c(C(F)(F)F)cc(=O)n(-c2cc(Oc3ccccc3OCC(=O)OCC3CCCC3)c(Cl)cc2F)c1=O [I.7-12] | 100 | 100 | 100 | 100 | 100 | 100 | 100 | 100 | 60 | 100 | 100 | 80 | 100 | 100 | 100 | 100 | 100 | 100 | 100 | 0 | Post-emergence effect at 1.25 g/ha against ABUTH in % ([1]; 1.25 g/ha): 90%; Post-emergence effect at 1.25 g/ha against DIGSA in % ([4]; 1.25 g/ha): 100%; Post-emergence effect at 5 g/ha against DIGSA in % ([4]; 5 g/ha): 100%; Post-emergence effect at 20 g/ha against DIGSA in % ([4]; 20 g/ha): 100%; Post-emergence effect at 5 g/ha against ECHCG in % ([5]; 5 g/ha): 90%; Post-emergence effect at 1.25 g/ha against PHBPU in % ([6]; 1.25 g/ha): 80%; Post-emergence effect at 1.25 g/ha against SETVI in % (Setaria viridis (SETVI); 1.25 g/ha): 80%; Post-emergence effect at 1.25 g/ha against VERPE in % (Veronica persica (VERPE); 1.25 g/ha): 90%; Post-emergence effect at 1.25 g/ha against VIOTR in % (Viola tricolor (VIOTR); 1.25 g/ha): 100%; Post-emergence effect at 5 g/ha against VIOTR in % (Viola tricolor (VIOTR); 5 g/ha): 100%; Post-emergence effect at 5 g/ha against ORYSA in % (Oryza sativa (ORYSA)): 20%; Post-emergence effect at 1.25 g/ha against TRZAS in % [9]: 10%; Post-emergence effect at 20 g/ha against TRZAS in % [9]: 20%; Post-emergence effect at 1.25 g/ha against ZEAMX in % (Zea mays (ZEAMX)): 10%; Post-emergence effect at 5 g/ha against ZEAMX in % (Zea mays (ZEAMX)): 20%; AVEFA (efficacy in %) (Avena fatura (AVEFA)): 70%; herbicidal efficacy by comparison with a-27, a-29 or a generically encompassed structure (WO2002/098227) (harmful plants): distinctly improved herbicidal efficacy; compatibility with crop plants by comparison with a-27, a-29 or a generically encompassed structure (WO2002/098227) (crop plants): distinctly improved compatibility |
| Cn1c(C(F)(F)F)cc(=O)n(-c2cc(Oc3ccccc3OCC(=O)OC3CCCC3)c(Cl)cc2F)c1=O [a-27, reference compound] |  |  |  | 80 |  |  |  |  | 30 |  |  |  |  |  |  |  |  |  |  |  | AVEFA (efficacy in %) (Avena fatura (AVEFA)): 40% |
| Cn1c(C(F)(F)F)cc(=O)n(-c2cc(Oc3ccccc3OCC(=O)OCC3CC3)c(Br)cc2F)c1=O [I.8-1, Cyclopropylmethyl (2-{2-bromo-4-fluoro-5-[3-methyl-2,6-dioxo-4-(trifluoromethyl)-3,6-dihydropyrimidin-1(2H)-yl]phenoxy}phenoxy)acetate] | 100 | 100 | 100 |  | 100 | 100 | 100 | 100 |  | 80 | 100 | 100 | 100 | 100 | 100 | 100 | 100 | 100 | 100 | 0 | Post-emergence effect at 1.25 g/ha against GLXMA in % (Glycine max (GLXMA)): 0%; Post-emergence effect at 5 g/ha against ORYSA in % (Oryza sativa (ORYSA)): 0%; Post-emergence effect at 20 g/ha against ORYSA in % (Oryza sativa (ORYSA)): 20%; Post-emergence effect at 1.25 g/ha against TRZAS in % [9]: 0%; Post-emergence effect at 20 g/ha against TRZAS in % [9]: 0%; Post-emergence effect at 1.25 g/ha against ZEAMX in % (Zea mays (ZEAMX)): 0% |
